Data taken from patent US9693556B2, “Herbicidal pyridazinone derivatives” (SYNGENTA LIMITED, priority 2011, dated 2017).

Columns and labels:
Assay type in all cases: in vivo
[1] = test system: Alopecurus myosuroides (ALOMY); test: Pre-emergence herbicidal glasshouse test on Alopecurus myosuroides; conditions: pre-emergence; 1000 g/h; evaluated after 13 days
Outline: (§1)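 Scored on a five-point scale (1 = 0-19% to 5 = 80-100% damage) 13 days after treatment. Application rate 1000 g/h in acetone/water (50:50) containing 0.5% Tween 20, sprayed one day post-sowing for pre-emergence or eight days for post-emergence; glasshouse at 24/16° C, 14 h light, 65% humidity.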

Setaria faberi (SETFA) [2] = test: Pre-emergence herbicidal glasshouse test on Setaria faberi; conditions: pre-emergence; 1000 g/h; evaluated after 13 days
Outline: as §1

[3] = test system: Echinochloa crus-galli (ECHCG); test: Pre-emergence herbicidal glasshouse test on Echinochloa crus-galli; conditions: pre-emergence; 1000 g/h; evaluated after 13 days
Outline: as §1

Solanum nigrum (SOLNI) [4] = test: Pre-emergence herbicidal glasshouse test on Solanum nigrum; conditions: pre-emergence; 1000 g/h; evaluated after 13 days
Outline: as §1

[5] = test system: Amaranthus retoflexus (AMARE); test: Pre-emergence herbicidal glasshouse test on Amaranthus retoflexus; conditions: pre-emergence; 1000 g/h; evaluated after 13 days
Outline: as §1

[6] = test system: Ipomoea hederacea (IPOHE); test: Pre-emergence herbicidal glasshouse test on Ipomoea hederacea; conditions: pre-emergence; 1000 g/h; evaluated after 13 days
Outline: as §1

[7] = test system: Alopecurus myosuroides (ALOMY); test: Post-emergence herbicidal glasshouse test on Alopecurus myosuroides; conditions: post-emergence; 1000 g/h; evaluated after 13 days
Outline: as §1

Setaria faberi (SETFA) [8] = test: Post-emergence herbicidal glasshouse test on Setaria faberi; conditions: post-emergence; 1000 g/h; evaluated after 13 days
Outline: as §1

[9] = test system: Echinochloa crus-galli (ECHCG); test: Post-emergence herbicidal glasshouse test on Echinochloa crus-galli; conditions: post-emergence; 1000 g/h; evaluated after 13 days
Outline: as §1

Solanum nigrum (SOLNI) [10] = test: Post-emergence herbicidal glasshouse test on Solanum nigrum; conditions: post-emergence; 1000 g/h; evaluated after 13 days
Outline: as §1

[11] = test system: Amaranthus retoflexus (AMARE); test: Post-emergence herbicidal glasshouse test on Amaranthus retoflexus; conditions: post-emergence; 1000 g/h; evaluated after 13 days
Outline: as §1

[12] = test system: Ipomoea hederacea (IPOHE); test: Post-emergence herbicidal glasshouse test on Ipomoea hederacea; conditions: post-emergence; 1000 g/h; evaluated after 13 days
Outline: as §1

| SMILES | PRE Application ALOMY herbicidal damage (five point scale) [1] | PRE Application SETFA herbicidal damage (five point scale) (Setaria faberi (SETFA) [2]) | PRE Application ECHCG herbicidal damage (five point scale) [3] | PRE Application SOLNI herbicidal damage (five point scale) (Solanum nigrum (SOLNI) [4]) | PRE Application AMARE herbicidal damage (five point scale) [5] | PRE Application IPOHE herbicidal damage (five point scale) [6] | POST Application ALOMY herbicidal damage (five point scale) [7] | POST Application SETFA herbicidal damage (five point scale) (Setaria faberi (SETFA) [8]) | POST Application ECHCG herbicidal damage (five point scale) [9] | POST Application SOLNI herbicidal damage (five point scale) (Solanum nigrum (SOLNI) [10]) | POST Application AMARE herbicidal damage (five point scale) [11] | POST Application IPOHE herbicidal damage (five point scale) [12] |
| --- | --- | --- | --- | --- | --- | --- | --- | --- | --- | --- | --- | --- |
| CN(C)c1nc(C(F)(F)F)ccc1-c1cnn(C)c(=O)c1O [Compound 1.134] | 1 (1=0-19% damage) | 1 (1=0-19% damage) | 1 (1=0-19% damage) | 5 (5=80-100% damage) | 5 (5=80-100% damage) | 2 (2=20-39% damage) | 1 (1=0-19% damage) | 2 (2=20-39% damage) | 2 (2=20-39% damage) | 5 (5=80-100% damage) | 5 (5=80-100% damage) | 5 (5=80-100% damage) |
| Cn1ncc(-n2ccc(C(F)(F)F)c(-c3ccc(C#N)cc3)c2=O)c(O)c1=O [Compound 7.031] | 5 (5=80-100% damage) | 5 (5=80-100% damage) | 5 (5=80-100% damage) | 5 (5=80-100% damage) | 5 (5=80-100% damage) | 5 (5=80-100% damage) | 5 (5=80-100% damage) | 5 (5=80-100% damage) | 5 (5=80-100% damage) | 5 (5=80-100% damage) | 5 (5=80-100% damage) | 5 (5=80-100% damage) |
| CCCOc1nn(C)c(=O)c(O)c1-c1ccc(C(F)(F)F)cc1S(C)(=O)=O [Compound 2.051, 4-hydroxy-2-methyl-5-[2-methylsulfonyl-4-(trifluoromethyl)phenyl]-6-propoxy-pyridazin-3-one] | 5 (5=80-100% damage) | 3 (3=40-59% damage) | 5 (5=80-100% damage) | 5 (5=80-100% damage) | 5 (5=80-100% damage) | 4 (4=60-79% damage) | 5 (5=80-100% damage) | 5 (5=80-100% damage) | 5 (5=80-100% damage) | 5 (5=80-100% damage) | 5 (5=80-100% damage) | 5 (5=80-100% damage) |
| Cn1ncc(-c2c(F)cnc(F)c2F)c(O)c1=O [Compound 1.149] | 1 (1=0-19% damage) | 1 (1=0-19% damage) | 1 (1=0-19% damage) | 1 (1=0-19% damage) | 1 (1=0-19% damage) | 1 (1=0-19% damage) | 2 (2=20-39% damage) | 1 (1=0-19% damage) | 1 (1=0-19% damage) | 4 (4=60-79% damage) | 4 (4=60-79% damage) | 1 (1=0-19% damage) |
| Cn1ncc(-n2cc(N3CCOCC3)c(C(F)(F)F)cc2=O)c(O)c1=O [Compound 1.025] | 1 (1=0-19% damage) | 1 (1=0-19% damage) | 1 (1=0-19% damage) | 1 (1=0-19% damage) | 1 (1=0-19% damage) | 1 (1=0-19% damage) | 1 (1=0-19% damage) | 1 (1=0-19% damage) | 1 (1=0-19% damage) | 4 (4=60-79% damage) | 2 (2=20-39% damage) | 2 (2=20-39% damage) |
| Cn1ncc(-n2ccc(C(F)(F)F)c(-c3ccccc3C(F)(F)F)c2=O)c(O)c1=O [Compound 1.052] | 4 (4=60-79% damage) | 4 (4=60-79% damage) | 5 (5=80-100% damage) | 5 (5=80-100% damage) | 5 (5=80-100% damage) | 1 (1=0-19% damage) | 4 (4=60-79% damage) | 5 (5=80-100% damage) | 5 (5=80-100% damage) | 5 (5=80-100% damage) | 5 (5=80-100% damage) | 5 (5=80-100% damage) |
| Cn1ncc(-n2ccc(O)c(C#N)c2=O)c(O)c1=O [Compound 1.066] | 3 (3=40-59% damage) | 1 (1=0-19% damage) | 2 (2=20-39% damage) | 4 (4=60-79% damage) | 4 (4=60-79% damage) | 5 (5=80-100% damage) | 2 (2=20-39% damage) | 1 (1=0-19% damage) | 1 (1=0-19% damage) | 3 (3=40-59% damage) | 1 (1=0-19% damage) | 2 (2=20-39% damage) |
| CN(C)c1c(Cl)ccc(-c2cnn(C)c(=O)c2O)c1F [Compound 1.064] | 1 (1=0-19% damage) | 1 (1=0-19% damage) | 1 (1=0-19% damage) | 1 (1=0-19% damage) | 1 (1=0-19% damage) | 1 (1=0-19% damage) | 1 (1=0-19% damage) | 1 (1=0-19% damage) | 1 (1=0-19% damage) | 5 (5=80-100% damage) | 5 (5=80-100% damage) | 4 (4=60-79% damage) |
| CC#Cc1ccc(-c2cnn(C)c(=O)c2O)c(S(C)(=O)=O)c1 [Compound 2.029] | 5 (5=80-100% damage) | 3 (3=40-59% damage) | 5 (5=80-100% damage) | 5 (5=80-100% damage) | 5 (5=80-100% damage) | 1 (1=0-19% damage) | 5 (5=80-100% damage) | 5 (5=80-100% damage) | 5 (5=80-100% damage) | 5 (5=80-100% damage) | 5 (5=80-100% damage) | 5 (5=80-100% damage) |
| COc1nn(C)c(=O)c(O)c1-c1ccc(C(F)(F)F)cc1S(C)(=O)=O [Compound 2.041] | 5 (5=80-100% damage) | 5 (5=80-100% damage) | 5 (5=80-100% damage) | 5 (5=80-100% damage) | 5 (5=80-100% damage) | 5 (5=80-100% damage) | 5 (5=80-100% damage) | 5 (5=80-100% damage) | 5 (5=80-100% damage) | 5 (5=80-100% damage) | 5 (5=80-100% damage) | 5 (5=80-100% damage) |
